Test results published in US8653086B2, “Naphthamides as anticancer agents” (Oregon Health & Science University, priority 2008, dated 2014).

Experiments:
HeLa cells [1] = assay: HeLa cell growth inhibition, MTT (Example 2); assay type: cell-based; conditions: Homo sapiens, 72 h, mean ± SD of at least two measurements in duplicates unless noted
Procedure: (§1) HeLa cells (human cervical cancer cells) were obtained from American Type Culture Collection (ATCC) and maintained in Dulbecco's modified Eagle medium (DMEM, Invitrogen, Carlsbad, Calif.) supplemented with 10% (v/v) fetal calf serum (Sigma, St. Louis, Mo.), 10 μg/mL penicillin and 10 μg/mL streptomycin (Invitrogen, Carlsbad, Calif.) at 37° C. under 5% CO2. HeLa cells (2,000 cells/well) were plated in 96-well plates the day before experiment. On the day of experiment, different concentrations of the drugs (final concentration 10^−8-10^−4 M) in duplicates were added to the cells and the cells were further incubated for 72 h. Then, the number of live cells was quantified by 3-(4,5-dimethyl-2-thiazolyl)-2,5-diphenyl-2H-tetrazolium bromide (MIT reagent, Sigma, St. Louis, Mo.).
(§2) The amount of reduced MTT formazan generated by live cells was determined by its absorbance at 570 nm after subtracting the background absorbance at 690 nm. The percent of cell growth was expressed as (A570(treated)−A570(initial))/(A570(vehicle treated)−A570(initial))×100, where A570(initial) represents initial cell population when drugs are added. The GI50 were derived from non-linear regression analysis of the dose-response curve using Prism 4.0 (GraphPad).

A549 cells [2] = assay: A549 cell growth inhibition, MTT (Example 2); assay type: cell-based; conditions: Homo sapiens, 72 h, mean ± SD of at least two measurements in duplicates unless noted
Procedure: as §1
(§3) Following the same procedure, identical experiments were performed using, A549 cells (human lung cancer cells) and MCF-7 cells (human breast cancer cells).
as §2

MCF-7 cells [3] = assay: MCF-7 cell growth inhibition, MTT (Example 2); assay type: cell-based; conditions: Homo sapiens, MCF7, 72 h, mean ± SD of at least two measurements in duplicates unless noted
Procedure: as §1, §3, §2

[4] = Maximum tolerated dose in nude mice; assay type: in vivo; conditions: for tolerability: ten days
Procedure: The maximum tolerated dose (MTD) of compound 4 and compound 7 was evaluated in nude mice.
In this study 7 groups were established, each with three mice per group. 10 μl/g of a mixture of 10 ml of DMSO and 10 ml sterile saline was administered per day to group I, the control group; compound 4 was administered intravenously at dose levels of 10, 25, and 50 mg/kg and a dose volume of 10 μl/g per day to groups 2-4 respectively; and compound 7 was administered intravenously at dose levels of 10, 25, and 50 mg/kg and a dose volume of 10 μl/g per day to groups 5-7 respectively. The study was run for ten days.
Animals were monitored individually up to 7 days after final treatment. Daily general health observations included animal mortality, appearance, spontaneous activity, body posture, and food and water intake. Lesions and any other adverse reactions were recorded.

HeLa cells [5] = assay: HeLa cancer cell growth inhibition, MTT (Example 6); assay type: cell-based; conditions: Homo sapiens, 72-h incubation
Procedure: (§4) HeLa, A549, and MCF-7 cells, in a 96-well plate (1.0×10^5/well) were treated with different concentrations of the compounds for 72 h. Then the number of cells was quantified by incubating cells with MTT reagent (Sigma, 50 μg/mL) for 3 h. The reduced formazan product was solubilized in DMSO to be measured spectrophotometrically at 570 nm.

A549 cells [6] = assay: A549 cancer cell growth inhibition, MTT (Example 6); assay type: cell-based; conditions: Homo sapiens, 72-h incubation
Procedure: as §4

MCF-7 cells [7] = assay: MCF-7 cancer cell growth inhibition, MTT (Example 6); assay type: cell-based; conditions: Homo sapiens, MCF7, 72-h incubation
Procedure: as §4

Question: For `O=C(Nc1ccc(I)cc1)c1cc2ccccc2cc1O`, which GI50 (HeLa cells [1]) is on record?
Answer: 3.74 ± 0.81 µM

Question: What about the GI50 (A549 cells [2]) of the same compound?
Answer: 5.45 ± 0.89 µM

Question: And the GI50 (MCF-7 cells [3])?
Answer: 9.76 ± 6.31 µM

Question: What does the source list for `COc1cc2ccccc2cc1C(=O)Nc1ccc(Cl)cc1`?
Answer: GI50 (HeLa cells [1]): 5.2 ± 0.61 µM; GI50 (A549 cells [2]): 62 ± 15.5 µM; GI50 (MCF-7 cells [3]): 24.8 ± 0.94 µM

Question: Which GI50 (HeLa cells [1]) does the source give for `O=C(Nc1ccc(F)c(F)c1)c1cc2ccccc2cc1O` here?
Answer: 2.18 ± 0.17 µM

Question: What about the GI50 (A549 cells [2]) of the same compound?
Answer: 3.57 ± 0.23 µM

Question: And the GI50 (MCF-7 cells [3])?
Answer: 2.09 ± 0.82 µM

Question: With `O=C(Nc1ccc(O)cc1)c1cc2ccccc2cc1O` as the compound, how does the GI50 (HeLa cells [1]) read?
Answer: 42.3 ± 6.7 µM

Question: And the GI50 (A549 cells [2])?
Answer: 28.1 µM

Question: What about the GI50 (MCF-7 cells [3]) of the same compound?
Answer: 6.8 ± 6.34 µM

Question: Which GI50 (HeLa cells [1]) does the source give for `O=C(Nc1ccccn1)c1cc2ccccc2cc1O` here?
Answer: 11.5 ± 8.9 µM

Question: And the GI50 (A549 cells [2])?
Answer: 75.8 ± 23.1 µM

Question: What about the GI50 (MCF-7 cells [3]) of the same compound?
Answer: 6.25 ± 5.89 µM

Question: What does the source list for `Cl.Cl.NCCCOc1cc(Cl)ccc1NC(=O)c1cc2ccccc2cc1OCCCN` [Compound 4, 3-(3-Aminopropoxyl)-N-(2-(3-aminopropoxy)-4-chlorophenyl)-2-naphthamide dihydrochloride]?
Answer: tolerability ([4]; 10 mg/kg per day intravenously): tolerated very well; tolerability ([4]; 25 mg/kg per day intravenously): tolerated very well; tolerability ([4]; 50 mg/kg per day intravenously): minor toxicity; body weight loss ([4]; 50 mg/kg, two of three animals at day 5 and day 6, recovery from day 7): 10-20%

Question: Which results are given for `NCCCOc1cc(Cl)ccc1NC(=O)c1cc2ccccc2cc1OCCCN` [drawing 36]?
Answer: GI50 (HeLa cells [1]): 0.48 ± 0.35 µM; GI50 (A549 cells [2]): 2.57 ± 0.41 µM; GI50 (MCF-7 cells [3]): 1.65 ± 0.42 µM

Question: For `NCCCOc1cc2ccccc2cc1C(=O)Nc1ccc(Cl)cc1`, which GI50 (HeLa cells [1]) is on record?
Answer: 1.47 ± 0.42 µM

Question: And the GI50 (A549 cells [2])?
Answer: 3.42 ± 0.43 µM

Question: And the GI50 (MCF-7 cells [3])?
Answer: 0.84 ± 0.18 µM

Question: Which GI50 (HeLa cells [1]) does the source give for `O=C(Nc1ccc(Br)cc1)c1cc2ccccc2cc1O` here?
Answer: 2.12 ± 0.007 µM

Question: What about the GI50 (A549 cells [2]) of the same compound?
Answer: 3.98 ± 0.65 µM

Question: What about the GI50 (MCF-7 cells [3]) of the same compound?
Answer: 1.83 ± 0.7 µM

Question: What does the source list for `Nc1ccc(NC(=O)c2cc3ccccc3cc2O)cc1`?
Answer: GI50 (HeLa cells [1]): 67.2 ± 46.3 µM; GI50 (A549 cells [2]): 51.6 ± 11.9 µM; GI50 (MCF-7 cells [3]): 28 ± 4.63 µM

Question: For `NCCCOc1cc2ccccc2cc1C(=O)Nc1ccc(Cl)cc1OC(=O)c1cc2ccccc2cc1OCCCN` [Compound 7], which tolerability ([4]; 10 mg/kg per day intravenously) is on record?
Answer: tolerated very well

Question: What about the tolerability ([4]; 25 mg/kg per day intravenously) of the same compound?
Answer: tolerated very well

Question: And the “local effect at injection site” value ([4]; 50 mg/kg intravenously)?
Answer: severe irritative effect on tail skin

Question: What about the tolerability ([4]; 50 mg/kg per day intravenously) of the same compound?
Answer: tolerated very well

Question: For `O=C(Nc1ccc(C(F)(F)F)cc1)c1cc2ccccc2cc1O`, which GI50 (HeLa cells [1]) is on record?
Answer: 2.4 ± 0.36 µM

Question: And the GI50 (A549 cells [2])?
Answer: 4.15 ± 0.5 µM

Question: And the GI50 (MCF-7 cells [3])?
Answer: 3.62 ± 2.56 µM

Question: What does the source list for `O=C(Nc1ccc(F)c(Cl)c1)c1cc2ccccc2cc1O`?
Answer: GI50 (HeLa cells [1]): 2.44 ± 0.56 µM; GI50 (A549 cells [2]): 3.76 ± 0.31 µM; GI50 (MCF-7 cells [3]): 5.21 ± 4.92 µM

Question: Which results are given for `O=C(Nc1ccc(Cl)cc1)c1cc2ccccc2cc1OP(=O)(O)O` [drawing 33]?
Answer: GI50 (HeLa cells [1]): 2.53 ± 0.58 µM; GI50 (A549 cells [2]): 1.94 µM; GI50 (MCF-7 cells [3]): 1.93 µM

Question: With `CN(C(=O)c1cc2ccccc2cc1O)c1ccc(Cl)cc1` as the compound, how does the GI50 (HeLa cells [1]) read?
Answer: 12.9 ± 4.34 µM

Question: What about the GI50 (A549 cells [2]) of the same compound?
Answer: 29.5 ± 5.27 µM

Question: What about the GI50 (MCF-7 cells [3]) of the same compound?
Answer: 13.6 ± 4.9 µM

Question: For `O=C(Nc1ccncc1)c1cc2ccccc2cc1O`, which GI50 (HeLa cells [1]) is on record?
Answer: 6.14 ± 3.03 µM

Question: And the GI50 (A549 cells [2])?
Answer: 25 ± 10.7 µM

Question: And the GI50 (MCF-7 cells [3])?
Answer: 15.8 ± 5.29 µM

Question: Which results are given for `O=C(Nc1cnccn1)c1cc2ccccc2cc1O`?
Answer: GI50 (HeLa cells [1]): 12.6 ± 12.1 µM; GI50 (A549 cells [2]): 32.2 ± 2.88 µM; GI50 (MCF-7 cells [3]): 12.7 ± 13.2 µM

Question: Which results are given for `O=C(Nc1ccc(F)cc1)c1cc2ccccc2cc1O`?
Answer: GI50 (HeLa cells [1]): 2.06 ± 0.31 µM; GI50 (A549 cells [2]): 6.78 ± 1.32 µM; GI50 (MCF-7 cells [3]): 2.34 ± 0.51 µM

Question: What does the source list for `O=C(Nc1ccc([N+](=O)[O-])cc1)c1cc2ccccc2cc1O`?
Answer: GI50 (HeLa cells [1]): 2.94 ± 0.7 µM; GI50 (A549 cells [2]): 3.28 ± 0.31 µM; GI50 (MCF-7 cells [3]): 1.5 ± 0.16 µM

Question: Which GI50 (HeLa cells [1]) does the source give for `O=C(Nc1ccc(Cl)cc1)c1cc2ccccc2cc1O` [drawing 32] here?
Answer: 2.52 ± 0.77 µM

Question: What about the GI50 (A549 cells [2]) of the same compound?
Answer: 2.88 ± 0.35 µM

Question: And the GI50 (MCF-7 cells [3])?
Answer: 2.76 ± 0.35 µM

Question: For `COc1cc2ccccc2cc1C(=O)Nc1ccc(Cl)cc1OC(=O)c1cc2ccccc2cc1OCCCN`, which GI50 (HeLa cells [5]) is on record?
Answer: 2.33 µM

Question: What about the GI50 (A549 cells [6]) of the same compound?
Answer: 12.9 µM

Question: And the GI50 (MCF-7 cells [7])?
Answer: 19.4 µM

Question: With `O=C(Nc1ccccc1)c1cc2ccccc2cc1O` as the compound, how does the GI50 (HeLa cells [1]) read?
Answer: 26.9 µM

Question: And the GI50 (A549 cells [2])?
Answer: 56.9 ± 7.75 µM

Question: And the GI50 (MCF-7 cells [3])?
Answer: 4.87 ± 1.27 µM

Question: What does the source list for `COc1cc2ccccc2cc1C(=O)Nc1ccc(Cl)cc1OC(=O)c1cc2ccccc2cc1OC` [drawing 35]?
Answer: GI50 (HeLa cells [1]): 0.27 ± 0.19 µM; GI50 (A549 cells [2]): 5.25 ± 0.75 µM; GI50 (MCF-7 cells [3]): 2.96 ± 0.66 µM

Question: What does the source list for `COc1cc2ccccc2cc1C(=O)Oc1cc(Cl)ccc1NC(=O)c1cc2ccccc2cc1OCCCN`?
Answer: GI50 (HeLa cells [5]): 3.12 µM; GI50 (A549 cells [6]): 12.9 µM; GI50 (MCF-7 cells [7]): 29.4 µM

Question: Which results are given for `COc1ccc(NC(=O)c2cc3ccccc3cc2O)cc1`?
Answer: GI50 (HeLa cells [1]): 8.32 ± 0.55 µM; GI50 (A549 cells [2]): 85.7 ± 8.74 µM; GI50 (MCF-7 cells [3]): 6.55 ± 2.28 µM
